Laboratory results from article PMC9424906 (Frontiers in Pharmacology, 2022).
Entries after “also recorded” stand apart in the source; their conditions may differ.

Columns and labels:
[1] = test system: SARS-CoV-2 (USA_WA1/2020); experiment: SARS-CoV-2 cytopathic effect (CPE) assay in Vero E6 cells; assay type: cell-based; conditions: Severe acute respiratory syndrome coronavirus 2, Vero C1008; Vero E6 cells, MOI 0.002, 72 h, n = 2; read-out: EC50, inhibition of SARS-CoV-2 CPE
[2] = Liver microsomal stability, CD-1 mouse; assay type: in vitro ADME; conditions: liver microsomes, pH 7.4, 0.5 mg/mL
Procedure: Samples were analyzed using UPLC-MS/MS.

in vitro [3] = assay type: in vitro ADME; conditions: both sexes, human, plasma
Procedure: Plasma protein binding experiments were carried out in mixed-gender human plasma, male Sprague-Dawley rat plasma, male CD-1 plasma, male Beagle dog plasma, and male Cynomolgus monkey plasma (BioIVT) using a Pierce Rapid Equilibration Dialysis (RED) device. […] Blank phosphate-buffered saline (PBS) (500 μL) was added to each corresponding receiver chamber. After 4 h of incubation (with shaking at 37°C), both sides were aliquoted, and matrix was normalized. Samples were centrifuged at 1000 g for 10 min after adding two volumes of ACN with IS. Supernatants were diluted 1:1 with water and analyzed with LC-MS/MS.
Plasma Protein binding was calculated as follows:
% Bound = [(PARR in Donor–PARR in Receiver)/(PARR in Donor)] × 100.
PARR = peak area response ratio to internal standard, including applicable dilution factors.

[4] = test system: plateable cryopreserved hepatocytes; assay type: in vitro ADME, mouse, rat, dog, monkey, human
Procedure: Plateable cryopreserved hepatocytes from male CD-1 mouse (Lot# DYF, 81.2% viability), male SD rat (Lot# PMD, 88.1% viability), male Beagle dog (Lot# YTK, 90.0% viability), male Cynomolgus monkey (Lot# GJV, 88.7% viability), and male human (Lot# PDC, 82.9% viability) were purchased from BioIVT (Baltimore, MD). Following vendor’s instructions, the hepatocyte vials were thawed in a 37°C water bath and cells were suspended in 5 mL of corresponding plating media (antibiotic added, rodent media for mouse and rat, dog media for dog, and primate media for monkey and human). The cells were manually counted using Trypan Blue method and were diluted to target concentration (0.35 million/mL for mouse and 0.7 million/mL for other species) with plating media. Diluted cells (500 µL) were then added to Collagen-I coated 24-well plate, distributed evenly, and incubated for 4 h for attaching. Media was changed 4 h prior to compound addition.
After 24 and 48 h, the reaction was stopped by adding 3x volumes of cold acetonitrile to the reaction mixture. Samples were vortexed and centrifuged to precipitate proteins. The supernatants were transferred to clean tubes and dried under a stream of N2 for ∼20 min at ambient temperature to remove most of organic solvent. The remaining liquid was dried by lyophilization. […]

CNT2 = target: T1, CNT2 (Homo sapiens, UniProt O43868); experiment: Nucleoside transporter uptake, CNT2-transfected MDCK cells; assay type: in vitro ADME; conditions: for Uptake compared to control cells: CNT2-transfected cells
T1 construct: expressed in transfected cells; host or cells: MDCK-II
T1 sequence (O43868 1-658): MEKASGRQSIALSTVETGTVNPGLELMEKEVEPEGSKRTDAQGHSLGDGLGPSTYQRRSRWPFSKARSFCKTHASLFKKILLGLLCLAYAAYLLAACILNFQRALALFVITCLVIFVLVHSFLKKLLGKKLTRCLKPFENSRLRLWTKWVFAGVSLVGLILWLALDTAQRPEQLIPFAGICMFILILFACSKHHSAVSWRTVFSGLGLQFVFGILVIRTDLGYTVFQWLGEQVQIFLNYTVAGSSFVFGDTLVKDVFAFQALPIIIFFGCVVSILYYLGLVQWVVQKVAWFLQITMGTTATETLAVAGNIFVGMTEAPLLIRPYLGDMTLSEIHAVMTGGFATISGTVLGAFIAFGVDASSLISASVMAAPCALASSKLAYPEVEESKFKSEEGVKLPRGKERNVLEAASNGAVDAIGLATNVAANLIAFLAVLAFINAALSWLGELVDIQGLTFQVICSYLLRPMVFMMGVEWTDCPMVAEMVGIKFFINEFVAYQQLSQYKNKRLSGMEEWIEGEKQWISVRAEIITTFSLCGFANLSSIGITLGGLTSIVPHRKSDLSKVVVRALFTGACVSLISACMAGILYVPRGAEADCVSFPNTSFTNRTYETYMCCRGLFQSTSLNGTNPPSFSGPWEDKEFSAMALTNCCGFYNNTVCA
Excerpt: (§1) Each condition was run in triplicate.

ENT2 = target: T2, ENT2 (Homo sapiens, UniProt Q14542); experiment: Nucleoside transporter uptake, ENT2-transfected MDCK cells; assay type: in vitro ADME
T2 construct: expressed in transfected cells; host or cells: MDCK-II
Excerpt: as §1

in vitro [5] = conditions: human, Caco-2, pH 7.4
BCRP = experiment: in vitro; conditions: human, Caco-2, pH 7.4
MDR1 = experiment: in vitro; conditions: human, Caco-2, pH 7.4
OAT1 = conditions: cited from earlier work
OAT3 = conditions: cited from earlier work
OATP1B1 = conditions: cited from earlier work

T2 sequence (Q14542 whole entry): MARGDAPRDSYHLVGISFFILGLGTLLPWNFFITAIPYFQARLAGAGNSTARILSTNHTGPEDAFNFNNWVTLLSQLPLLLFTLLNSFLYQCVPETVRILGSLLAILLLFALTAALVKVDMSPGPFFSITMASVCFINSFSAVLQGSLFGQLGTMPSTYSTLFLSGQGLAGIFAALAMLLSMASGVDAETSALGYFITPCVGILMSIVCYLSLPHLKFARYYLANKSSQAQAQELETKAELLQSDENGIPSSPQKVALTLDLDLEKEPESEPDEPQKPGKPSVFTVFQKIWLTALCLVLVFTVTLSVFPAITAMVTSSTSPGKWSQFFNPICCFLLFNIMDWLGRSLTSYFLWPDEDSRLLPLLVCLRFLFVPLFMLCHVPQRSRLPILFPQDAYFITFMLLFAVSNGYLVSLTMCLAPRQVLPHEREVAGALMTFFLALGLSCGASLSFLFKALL

## N#C[C@@]1(c2ccc3c(N)ncnn23)O[C@H](CO)[C@@H](O)[C@H]1O [GS-441524]
[1]
  EC50: 1860 nM
[2]
  half-life at 1 µM: 78 ± 3 min
In vitro [3]
  fraction unbound at 4 h, 10 µM: ~0.78
[4]
  Glucuronidation and sulfation metabolites in plateable hepatocytes: detected at trace amount
  Phosphorylated metabolites in plateable hepatocytes: no detectable phosphorylated metabolites
CNT2
  Substrate of CNT2: not a substrate; also recorded: unlikely to be a substrate
CNT2; 10 µM
  Uptake compared to control cells: higher than 2 fold
CNT2; 30 and 100 µM
  Uptake compared to control cells: less than 2 fold
ENT2
  Substrate of ENT2: substrate
ENT2; ENT2-transfected cells, 100 µM adenosine
  Inhibition of uptake by reference inhibitor: did not inhibit; also recorded: no inhibition was observed
In vitro [5]
  Papp A→B at 2 h, 5 µM: 0.099 ×10⁻⁶ cm/s
  Papp B→A at 2 h, 5 µM: 0.971 ×10⁻⁶ cm/s
BCRP
  Papp A→B at 2 h, 5 µM: 0.229 ×10⁻⁶ cm/s
  Papp B→A at 2 h, 5 µM: 0.267 ×10⁻⁶ cm/s
MDR1
  Papp A→B at 2 h, 5 µM: 0.16 ×10⁻⁶ cm/s
  Papp B→A at 2 h, 5 µM: 0.79 ×10⁻⁶ cm/s
OAT1
  Substrate of OAT1: not a substrate
OAT3
  Substrate of OAT3: not a substrate
OATP1B1
  Substrate of OATP1B1: not a substrate
